Laboratory results as given in patent publication US10716797B2, “Steroid alkaloids and compositions and kits thereof” (priority 2013, dated 2020).
“Also recorded” adds a separate entry of the source.

Columns and labels:
[1] = test system: S. aureus SCV strain hemB; assay: Murine lung infection (pneumonia) model; format: in vivo, mouse; settings: mice; intratracheal, 4 h post-infection; lungs 24 h post-infection; hydrochloride
Procedure: Compound efficacy in a lung infection (pneumonia) model was evaluated as follow (Ragle et al, 2010; Mitchell et al, 2013): Mice (36) were challenged with an intra-tracheal injection of S. aureus SCV strain hemB (10^7 CFU) (10^7 CFU) (normal S. aureus could also have been used, mixed or not with P. aeruginosa for a co-infection). […] More particularly, 11 mice were untreated (Unrteated); 4 mice were treated with 10 μg of tomatidine (TO (10)); 4 mice were treated with 100 μg of tomatidine (TO (100)); 3 mice were treated with 10 μg of compound 14 (Compound 14 (10)); 8 mice were treated with 100 μg of compound 14 (Compound 14 (100)); and 6 mice were treated with 200 μg of compound 14 (Compound 14 (200)). Mice were euthanized 24 h post-infection. The lungs were recovered, homogenized, and bacterial CFU per g of tissue were determined by plating appropriate dilutions on Brain Hearth Infusion agar media (other media such as for example, mannitol salt agar for S. aureus or cetrimide plates for P. aeruginosa could be used).
Each dot represents the CFU per g of tissue for one mouse. The boxes represent the CFU data distribution, the first quartile, the median and the third quartile. Statistical differences (P<0.001) between CFU recovered from treated and untreated animals are shown by asterisks (non-parametric Kruskal-Wallis ANOVA with Dunn's post test).

[2] = test system: S. aureus SCV strain NewbouldΔhemB; assay: MIC by microdilution against SCV strain; format: cell-based, Staphylococcus aureus
Procedure: Method. The minimal inhibitory concentrations (MICs), (i.e. lowest concentration of an antimicrobial that will inhibit the visible growth of a microorganism after incubation), of test compounds were determined against the normal or SCV strains of bacterial species from the Firmicutes phylum. Briefly, MICs were determined using the microdilution method in 96-well plates (Clinical and Laboratory Standards Institute (CLSI), 2011). Bacteria were inoculated at ˜10^5-10^6 CFU/mL and incubated at 35° C. for 20 h (normal strains) or 48 h (SCVs) in brain heart infusion (BHI) broth in order to allow SCVs to reach maximal growth as previously described (Mitchell et al., 2012). Then OD595 nm was read on a microplate reader. […] In this example the range of compound concentrations tested was 0.03 to 64 μg/ml using doubling increments. Strain Staphylococcus aureus NewbouldΔhemB (hemB) was also used in the experiments and is a laboratory-derived stable SCV created by the insertion of the macrolide resistance gene ermA in the hemB gene of this strain to create the SCV phenotype (defective electron transport chain and respiratory deficiency) through inactivation of hemin biosynthesis (Brouillette et al., 2004). […]

[3] = test system: Listeria monocytogenes (strain ATCC 13932); assay: Time-kill experiments, Listeria monocytogenes; format: cell-based
Procedure: Time-kill experiments were performed in order to determine whether the effect of test compounds or the combination with an aminoglycoside on Listeria monocytogenes (strain ATCC 13932) is bacteriostatic (prevents growth) or bactericidal (kills cells).
At several time points during growth at 35° C. (225 RPM), bacteria were sampled, serially diluted and plated on Brain Hearth Infusion agar (BHIA) for colony-forming unit (CFU) determinations (i.e., viable bacterial counts). Plates were incubated for 24 h at 35° C. It represents the results of three independent experiments.

[4] = test system: Staphylococcus aureus ATCC 29213; assay: MIC by microdilution, compound alone or in combination with an aminoglycoside; format: cell-based
Procedure: Method. The minimal inhibitory concentrations (MICs), (i.e. lowest concentration of an antimicrobial that will inhibit the visible growth of a microorganism after incubation), of test compounds were determined against the normal or SCV strains of bacterial species from the Firmicutes phylum. Briefly, MICs were determined using the microdilution method in 96-well plates (Clinical and Laboratory Standards Institute (CLSI), 2011). Bacteria were inoculated at ˜10^5-10^6 CFU/mL and incubated at 35° C. for 20 h (normal strains) or 48 h (SCVs) in brain heart infusion (BHI) broth in order to allow SCVs to reach maximal growth as previously described (Mitchell et al., 2012). Then OD595 nm was read on a microplate reader. […] In this example the range of compound concentrations tested was 0.03 to 64 μg/ml using doubling increments. Strain Staphylococcus aureus NewbouldΔhemB (hemB) was also used in the experiments and is a laboratory-derived stable SCV created by the insertion of the macrolide resistance gene ermA in the hemB gene of this strain to create the SCV phenotype (defective electron transport chain and respiratory deficiency) through inactivation of hemin biosynthesis (Brouillette et al., 2004).
The various antibacterial activities of the test compounds against Staphylococcus aureus ATCC 29213, alone or in combination with gentamicin, and alone against the SCV strain hemB are reported in Table 1.

[5] = test system: Staphylococcus aureus strain SH1000 grown in biofilms; assay: Calgary biofilm device, CFU and crystal violet; format: cell-based; settings: hydrochloride
Procedure: The bactericidal activity of tomatidine and Compound 14 in combination with gentamicin against Staphylococcus aureus was evaluated against this bacterium grown in a biofilm. Biofilms confer to bacteria protection from host defenses as well as tolerance to some antibiotics that target active and dividing cells. In addition, biofilms also provide protection against hydrodynamic shear forces, and biofilm infections are generally difficult to eradicate even in hosts with intact immune system (Costerton et al, 1999; Davies 2003).
Staphylococcus aureus strain SH1000 of the normal phenotype (i.e., non-SCV) was used for its high ability to produce biofilms. The Calgary biofilm device (96-well plates with peg lids) was used to grow S. aureus in biofilms (Ceri et al, 1999) and to test the bactericidal activity of compounds (Moskowitz et al, 2004). Briefly, S. aureus SH1000 was grown in the Calgary biofilm device for 24 h at 35° C. until the biofilm forms on the pegs. The pegs were then washed, the medium was removed and the peg lids were dipped in fresh medium containing various amounts of test compounds. […] Replicate experiments were performed in order to quantify the residual amount of biofilm on pegs by crystal violet staining and spectrophotometry (absorbance [OD] at 562 nm).

[6] = compound tested alone, strain NewbouldΔhemB

## 3-(N-aminoethyl)-aminotomatidine hydrochloride [Compound 14]
other
  solubility in DMSO: 26 mg/mL
[1]
  bacterial load in lungs (CFU per g of tissue): significantly reduce the bacterial load; also recorded: superior to tomatidine hydrochloride salt
[2]; S. aureus hemB (SCV strain NewbouldΔhemB)
  MIC: 0.5 µg/mL
[2]; [6]
  Activity of the compounds against the SCV strain (class): Moderate (MIC = 0.5-4 μg/mL: moderate activity)
  MIC vs SCV: 0.5 to 1 µg/mL
[3]; 8 μg/ml with 2 μg/ml gentamicin
  effect in time-kill in combination with gentamicin: important bactericidal synergy
[3]; used alone at 8 μg/ml
  effect on growth in time-kill (CFU): reduces the growth
[4]; MIC gentamicin alone / MIC gentamicin with compound at 4 μg/mL
  potentiaton fold with gentamicin: 4-8 x
[4]; S. aureus ATCC 29213
  potentiation / synergy with aminoglycoside (gentamicin) in words: retain the ability to potentiate
[4]; compound tested alone
  activity vs ATCC29213 in words: Active
[4]; compound tested alone, hydrochloride
  MIC vs ATCC29213: 8 to 16 µg/mL
[4]; compound used at 4 μg/mL
  potentiation activity with gentamicin in words: Moderate-high
[4]; compound used at 4 μg/mL, MIC of gentamicin alone 0.5 μg/mL
  Combination MIC vs ATCC29213 (MIC of gentamicin in combination with the compound): 0.06-0.12
[5]; alone or in combination with gentamicin, 24 h
  killing of S. aureus in biofilms (Log 10 CFU/peg): efficiently kills; also recorded: bactericidal
[5]; used alone, Compound 14 at 4 μg/ml, TO at 8 μg/ml
  biofilm disrupting activity (residual OD562 nm): superior biofilm disrupting activity; also recorded: can also disrupt biofilm formation
